The source of these data is patent US12404279B2, “Deubiquitinase inhibitors and methods of use thereof” (Molecure S.A., priority 2021, dated 2025).

Molecules are shown by their SMILES. Where a name gives a salt, the structure may show the parent alone.

Chain of full-length USP7 (Q93009 whole entry): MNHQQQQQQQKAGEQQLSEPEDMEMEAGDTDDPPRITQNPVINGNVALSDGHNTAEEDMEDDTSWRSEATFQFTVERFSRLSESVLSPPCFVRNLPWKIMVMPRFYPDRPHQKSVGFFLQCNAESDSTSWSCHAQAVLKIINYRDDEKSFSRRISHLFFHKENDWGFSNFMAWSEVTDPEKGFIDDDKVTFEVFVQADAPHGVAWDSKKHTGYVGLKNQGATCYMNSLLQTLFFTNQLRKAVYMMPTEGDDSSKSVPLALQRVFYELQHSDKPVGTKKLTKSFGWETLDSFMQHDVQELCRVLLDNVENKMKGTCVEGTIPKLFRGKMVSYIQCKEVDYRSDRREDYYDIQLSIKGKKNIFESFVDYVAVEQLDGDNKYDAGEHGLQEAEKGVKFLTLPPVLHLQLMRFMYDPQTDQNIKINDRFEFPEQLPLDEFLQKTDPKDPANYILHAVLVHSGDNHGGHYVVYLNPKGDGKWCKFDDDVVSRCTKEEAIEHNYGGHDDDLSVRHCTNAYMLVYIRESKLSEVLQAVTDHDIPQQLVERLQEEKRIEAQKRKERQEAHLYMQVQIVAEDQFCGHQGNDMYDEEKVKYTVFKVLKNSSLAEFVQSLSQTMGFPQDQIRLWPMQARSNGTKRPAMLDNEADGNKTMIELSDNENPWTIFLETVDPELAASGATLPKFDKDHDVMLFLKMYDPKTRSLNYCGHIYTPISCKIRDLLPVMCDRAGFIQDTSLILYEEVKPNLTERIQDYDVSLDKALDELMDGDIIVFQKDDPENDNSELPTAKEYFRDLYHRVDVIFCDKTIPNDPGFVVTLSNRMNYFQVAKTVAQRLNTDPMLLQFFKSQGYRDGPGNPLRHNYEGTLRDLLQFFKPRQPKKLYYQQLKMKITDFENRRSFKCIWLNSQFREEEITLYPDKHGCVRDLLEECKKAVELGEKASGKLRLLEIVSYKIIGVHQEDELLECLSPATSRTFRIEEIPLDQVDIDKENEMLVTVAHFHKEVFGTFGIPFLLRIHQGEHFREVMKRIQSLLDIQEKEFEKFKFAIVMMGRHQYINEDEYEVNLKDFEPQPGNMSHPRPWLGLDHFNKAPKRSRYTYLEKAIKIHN

For one assay, the target named is full-length USP7 (Homo sapiens (Human), UniProt Q93009). In words: Enzymatic assay to determine IC50 of USP7 inhibitors (Ubiquitin-Rhodamine 110 cleavage). In kind it is biochemical. The conditions noted are these: 0.5 nM USP7, 0.5 μM Ubiquitin-Rhodamine 110, 45 min at 37° C. How it is done:
For the inhibitors disclosed herein, their potency was measured using the following method.
A 45 μl reaction volume containing full-length USP7 (0.5 nM) in 50 mM HEPES pH 7.5, 150 mM NaCl, 1 mM DTT, 1 mg/ml BSA and 0.05% Tween20 was assembled in wells of 96 well half area black flat bottom plates. Test compounds were first dissolved to 25 mM stocks in DMSO and subsequently introduced to enzyme 15 min after USP7 incubation with DTT at room temperature. The enzymatic reaction was started by adding 0.5 μM Ubiquitin-Rhodamine 110 (final concentration) and allowed to proceed for 45 min at 37° C., 250 RPM shaking before Rhodamine fluorescence (485 nm excitation/520 nm emission) was measured using Tecan Spark M10 plate reader.
`Cc1nc(C#N)cc(-c2ccnc3cc(CN4C(=O)C5C(C4=O)C5(C)C)sc23)c1C(=O)N1CCNC[C@@H]1C` (stereo partly drawn) [Example 5, 4-(2-((6,6-dimethyl-2,4-dioxo-3-azabicyclo[3.1.0]hexan-3-yl)methyl)thieno[3,2-b]pyridin-7-yl)-6-methyl-5-((S)-2-methylpiperazine-1-carbonyl)picolinonitrile 2,2,2-trifluoroacetate] registered an IC50 of under 0.5 µM.
In turn, `Cc1nc(C#N)cc(-c2ccnc3cc(CN4C(=O)C5C(C4=O)C5(C)C)sc23)c1C(=O)N1CC[C@@H](N)C1` (stereo partly drawn) [Example 8, 5-((R)-3-aminopyrrolidine-1-carbonyl)-4-(2-((6,6-dimethyl-2,4-dioxo-3-azabicyclo[3.1.0]hexan-3-yl)methyl)thieno[3,2-b]pyridin-7-yl)-6-methylpicolinonitrile 2,2,2-trifluoroacetate] gave an IC50 of 0.5 to 1 µM.
Still for that read-out and setting: to `Cc1nc(C#N)cc(-c2ccnc3cc(CN4C(=O)C5C(C4=O)C5(C)C)sc23)c1C(=O)N1CCC(F)(F)C1` (centres unmarked) [Example 10, 5-(3,3-difluoropyrrolidine-1-carbonyl)-4-(2-((6,6-dimethyl-2,4-dioxo-3-azabicyclo[3.1.0]hexan-3-yl)methyl)thieno[3,2-b]pyridin-7-yl)-6-methylpicolinonitrile 2,2,2-trifluoroacetate] belongs 1 to 10 µM.
The same measure, in the same setting: to `Cc1nc(C#N)cc(-c2ccnc3cc(CN4C(=O)C5C(C4=O)C5(C)C)sc23)c1C(=O)N1CC[C@H](O)C1` (stereo partly drawn) [Example 11, 4-(2-((6,6-dimethyl-2,4-dioxo-3-azabicyclo[3.1.0]hexan-3-yl)methyl)thieno[3,2-b]pyridin-7-yl)-5-((S)-3-hydroxypyrrolidine-1-carbonyl)-6-methylpicolinonitrile 2,2,2-trifluoroacetate] belongs under 0.5 µM; to `Cc1nc(C#N)cc(-c2ccnc3cc(CN4C(=O)C5C(C4=O)C5(C)C)sc23)c1C(=O)N1CC[C@@H](O)C1` (stereo partly drawn) [Example 12, 4-(2-((6,6-dimethyl-2,4-dioxo-3-azabicyclo[3.1.0]hexan-3-yl)methyl)thieno[3,2-b]pyridin-7-yl)-5-((R)-3-hydroxypyrrolidine-1-carbonyl)-6-methylpicolinonitrile 2,2,2-trifluoroacetate], 0.5 to 1 µM.
Regarding `Cc1nc(C#N)cc(-c2ccnc3cc(CN4C(=O)C5C(C4=O)C5(C)C)sc23)c1C(=O)N1CC[C@H](N)C1` (stereo partly drawn) [Example 15, 5-((S)-3-aminopyrrolidine-1-carbonyl)-4-(2-((6,6-dimethyl-2,4-dioxo-3-azabicyclo[3.1.0]hexan-3-yl)methyl)thieno[3,2-b]pyridin-7-yl)-6-methylpicolinonitrile 2,2,2-trifluoroacetate], the IC50 is under 0.5 µM.
`Cc1nc(C#N)cc(-c2ccnc3cc(CN4C(=O)C5C(C4=O)C5(C)C)sc23)c1C(=O)N1CCNCC1` (centres unmarked) [Example 17, 4-(2-((6,6-dimethyl-2,4-dioxo-3-azabicyclo[3.1.0]hexan-3-yl)methyl)thieno[3,2-b]pyridin-7-yl)-6-methyl-5-(piperazine-1-carbonyl)picolinonitrile hydrochloride]: the IC50 was 0.5 to 1 µM.
The same measure, in the same setting: to `Cc1cc(C(F)(F)F)nc(-c2ccnc3cc(CN4C(=O)C5C(C4=O)C5(C)C)sc23)c1NC1CCNC1` (centres unmarked) [Example 18, 6,6-dimethyl-3-((7-(4-methyl-3-(pyrrolidin-3-ylamino)-6-(trifluoromethyl)pyridin-2-yl)thieno[3,2-b]pyridin-2-yl)methyl)-3-azabicyclo[3.1.0]hexane-2,4-dione 2,2,2-trifluoroacetate] belongs under 0.5 µM; to `Cc1nc(C#N)cc(-c2ccnc3cc(CN4C(=O)C5C(C4=O)C5(C)C)sc23)c1C(=O)N1CC(F)(F)C1` (centres unmarked) [Example 19, 5-(3,3-difluoroazetidine-1-carbonyl)-4-(2-((6,6-dimethyl-2,4-dioxo-3-azabicyclo[3.1.0]hexan-3-yl)methyl)thieno[3,2-b]pyridin-7-yl)-6-methylpicolinonitrile 2,2,2-trifluoroacetate], 0.5 to 1 µM.
On to `Cc1cc(C#N)nc(-c2ccnc3cc(CN4C(=O)C5C(C4=O)C5(C)C)sc23)c1NC1CCNC1` (centres unmarked) [Example 20, 6-(2-((6,6-dimethyl-2,4-dioxo-3-azabicyclo[3.1.0]hexan-3-yl)methyl)thieno[3,2-b]pyridin-7-yl)-4-methyl-5-(pyrrolidin-3-ylamino)picolinonitrile dihydrochloride], for which the IC50 is under 0.5 µM.
For the compound `Cc1nc(C(F)(F)F)cc(-c2ccnc3cc(CN4C(=O)C5C(C4=O)C5(C)C)sc23)c1O[C@H]1CCNC1` (some centres unmarked) [Example 22], the concentration for half-maximal inhibition (IC50) lay within 0.5 to 1 µM.
Still for that read-out and setting: as for `Cc1nc(C(F)(F)F)cc(-c2ccnc3cc(CN4C(=O)C5C(C4=O)C5(C)C)sc23)c1O[C@H]1CCCNC1` (stereo partly drawn) [Example 23, 6,6-dimethyl-3-((7-(2-methyl-3-(((S)-piperidin-3-yl)oxy)-6-(trifluoromethyl)pyridin-4-yl)thieno[3,2-b]pyridin-2-yl)methyl)-3-azabicyclo[3.1.0]hexane-2,4-dione 2,2,2-trifluoroacetate], the figure is under 0.5 µM.
The same measure, in the same setting: to `Cc1cc(C#N)nc(-c2ccnc3cc(CN4C(=O)C5C(C4=O)C5(C)C)sc23)c1NC1CNC1` (centres unmarked) [Example 24, 5-(azetidin-3-ylamino)-6-(2-((6,6-dimethyl-2,4-dioxo-3-azabicyclo[3.1.0]hexan-3-yl)methyl)thieno[3,2-b]pyridin-7-yl)-4-methylpicolinonitrile 2,2,2-trifluoroacetate] belongs under 0.5 µM; to `Cc1nc(C#N)cc(-c2ccnc3cc(CN4C(=O)C5C(C4=O)C5(C)C)sc23)c1NC1CCNC1` (centres unmarked) [Example 26, 4-(2-((6,6-dimethyl-2,4-dioxo-3-azabicyclo[3.1.0]hexan-3-yl)methyl)thieno[3,2-b]pyridin-7-yl)-6-methyl-5-(pyrrolidin-3-ylamino)picolinonitrile 2,2,2-trifluoroacetate], under 0.5 µM; to `Cc1nc(Cl)cc(-c2ccnc3cc(CN4C(=O)C5C(C4=O)C5(C)C)sc23)c1NC(=O)C1CNC1` (centres unmarked) [Example 29, N-(6-chloro-4-(2-((6,6-dimethyl-2,4-dioxo-3-azabicyclo[3.1.0]hexan-3-yl)methyl)thieno[3,2-b]pyridin-7-yl)-2-methylpyridin-3-yl)azetidine-3-carboxamide 2,2,2-trifluoroacetate], under 0.5 µM.
On the same count and under the same terms, as for `Cc1nc(C#N)cc(-c2ccnc3cc(CN4C(=O)C5C(C4=O)C5(C)C)sc23)c1NC(=O)C1CNC1` (centres unmarked) [Example 30, N-(6-cyano-4-(2-((6,6-dimethyl-2,4-dioxo-3-azabicyclo[3.1.0]hexan-3-yl)methyl)thieno[3,2-b]pyridin-7-yl)-2-methylpyridin-3-yl)azetidine-3-carboxamide 2,2,2-trifluoroacetate], the figure is under 0.5 µM.

Staying with this assay, now noted: at 1 μM of the test compound; given where IC50 not determined yet; read-out: percent value of inhibition of USP7 activity.
As for `Cc1nc(C#N)cc(-c2ccnc3cc(CN4C(=O)C5C(C4=O)C5(C)C)sc23)c1C(=O)N1CCC(F)(F)CC1` (centres unmarked) [Example 13, 5-(4,4-difluoropiperidine-1-carbonyl)-4-(2-((6,6-dimethyl-2,4-dioxo-3-azabicyclo[3.1.0]hexan-3-yl)methyl)thieno[3,2-b]pyridin-7-yl)-6-methylpicolinonitrile 2,2,2-trifluoroacetate], the inhibition at 1 µM lay within 20 to 49%.
On the same count and under the same terms, as for `Cc1nc(C#N)cc(-c2ccnc3cc(CN4C(=O)C5C(C4=O)C5(C)C)sc23)c1C(=O)NC1CNC1` (centres unmarked) [Example 16, N-(azetidin-3-yl)-6-cyano-4-(2-((6,6-dimethyl-2,4-dioxo-3-azabicyclo[3.1.0]hexan-3-yl)methyl)thieno[3,2-b]pyridin-7-yl)-2-methylnicotinamide hydrochloride], the figure is 20 to 49%.

The assay is the same for the next values; noted with them: read-out: percent value of inhibition of USP7 activity.
Take `CC1(C)C2C(=O)N(Cc3cc4nccc(-c5cc(C(F)(F)F)n(CC6CNCCO6)n5)c4s3)C(=O)C21` (centres unmarked) [Example 6, 6,6-dimethyl-3-((7-(1-(morpholin-2-ylmethyl)-5-(trifluoromethyl)-1H-pyrazol-3-yl)thieno[3,2-b]pyridin-2-yl)methyl)-3-azabicyclo[3.1.0]hexane-2,4-dione 2,2,2-trifluoroacetate]: the inhibition at 1 µM is under 20%.
Still for that read-out and setting: as for `CC1(C)C2C(=O)N(Cc3cc4nccc(-c5cc(C(F)(F)F)nn5CC5CNCCO5)c4s3)C(=O)C21` (centres unmarked) [Example 7, 6,6-dimethyl-3-((7-(1-(morpholin-2-ylmethyl)-3-(trifluoromethyl)-1H-pyrazol-5-yl)thieno[3,2-b]pyridin-2-yl)methyl)-3-azabicyclo[3.1.0]hexane-2,4-dione 2,2,2-trifluoroacetate], the figure is under 20%; as for `CC1(C)C2C(=O)N(Cc3cc4nccc(-c5cccn5CC5CNCCO5)c4s3)C(=O)C21` (centres unmarked) [Example 9, 6,6-dimethyl-3-((7-(1-(morpholin-2-ylmethyl)-1H-pyrrol-2-yl)thieno[3,2-b]pyridin-2-yl)methyl)-3-azabicyclo[3.1.0]hexane-2,4-dione 2,2,2-trifluoroacetate], under 20%.
The same measure, in the same setting: as for `Cc1nc(C#N)cc(-c2ccnc3cc(CN4C(=O)C5C(C4=O)C5(C)C)sc23)c1C(=O)NC1CC(F)(F)C1` (centres unmarked) [Example 14, 6-cyano-N-(3,3-difluorocyclobutyl)-4-(2-((6,6-dimethyl-2,4-dioxo-3-azabicyclo[3.1.0]hexan-3-yl)methyl)thieno[3,2-b]pyridin-7-yl)-2-methylnicotinamide 2,2,2-trifluoroacetate], the figure is under 20%.
Turning to `Cc1nc(C#N)cc(-c2ccnc3cc(CN4C(=O)C5C(C4=O)C5(C)C)sc23)c1NC(=O)C1CCN1` (centres unmarked) [Example 27, N-(6-cyano-4-(2-((6,6-dimethyl-2,4-dioxo-3-azabicyclo[3.1.0]hexan-3-yl)methyl)thieno[3,2-b]pyridin-7-yl)-2-methylpyridin-3-yl)azetidine-2-carboxamide 2,2,2-trifluoroacetate], the inhibition at 1 µM was under 20%.

For orientation: IC50 means the concentration needed to halve the response being measured. A lower IC50 goes with higher potency. As usually defined, the inhibition is the percentage by which the read-out fell short of the control.
